Assay results from patent US12077555B2, “STAT degraders and uses thereof” (Kymera Therapeutics, Inc., priority 2019, dated 2024).

Target: STAT3 (Homo sapiens, UniProt P40763)
Experiment: Quantitation of STAT3 degradation in A549 cells by Western blot
Assay type: cell-based
Design: expressed in transfected cells; host or cells: A549
Conditions: read-out: A549 DC50, 24 hours, tested up to 30 μM or 10 μM
Outline: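 A549 cells treated 24 h at 37° C with compound at 30, 10, 3, 1, 0.3 μM or DMSO; RIPA lysates analysed by SDS-PAGE/Western blot for total STAT3, β-actin as loading control, LI-COR fluorescence read-out. DC50 derived by sigmoidal fit of dose-dependent degradation.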

Sequence of STAT3 (P40763 whole entry): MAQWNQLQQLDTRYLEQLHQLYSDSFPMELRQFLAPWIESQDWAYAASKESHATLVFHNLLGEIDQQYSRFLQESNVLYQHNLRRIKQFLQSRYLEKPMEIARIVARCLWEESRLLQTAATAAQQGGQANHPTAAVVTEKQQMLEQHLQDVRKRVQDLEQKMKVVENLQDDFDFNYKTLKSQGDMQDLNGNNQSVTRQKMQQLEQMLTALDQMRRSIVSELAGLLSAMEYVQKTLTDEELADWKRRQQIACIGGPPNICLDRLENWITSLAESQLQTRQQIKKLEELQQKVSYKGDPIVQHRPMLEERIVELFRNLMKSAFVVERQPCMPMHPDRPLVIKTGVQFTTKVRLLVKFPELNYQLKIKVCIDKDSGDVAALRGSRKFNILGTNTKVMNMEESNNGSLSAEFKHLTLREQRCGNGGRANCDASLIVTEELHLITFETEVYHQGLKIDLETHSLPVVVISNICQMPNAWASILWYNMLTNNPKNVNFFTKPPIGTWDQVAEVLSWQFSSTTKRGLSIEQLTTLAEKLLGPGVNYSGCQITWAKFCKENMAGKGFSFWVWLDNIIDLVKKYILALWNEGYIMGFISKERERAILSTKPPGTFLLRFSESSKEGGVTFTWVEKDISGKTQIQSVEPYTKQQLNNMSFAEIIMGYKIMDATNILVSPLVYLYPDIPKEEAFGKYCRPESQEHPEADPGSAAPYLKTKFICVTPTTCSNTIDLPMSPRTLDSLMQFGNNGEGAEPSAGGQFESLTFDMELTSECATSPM

Compound | DC50
Cn1c(=O)n(C2CCC(=O)NC2=O)c2ccc(C#CCCCCC(=O)N3CC[C@H]4CC[C@@H](C(=O)N[C@@H](CCC(N)=O)C(=O)NC(c5ccccc5)c5ccccc5)N4C(=O)[C@@H](NC(=O)c4cc5cc(C(=O)P(=O)(O)O)ccc5[nH]4)C3)cc21 (stereo partly drawn) [Compound I-99, 2-[[(5S,8S,10aR)-8-[[(1S)-3-carbamoyl-1-(diphenylmethylcarbamoyl)propyl]carbamoyl]-3-[7-[1-(2,6-dioxopiperidin-3-yl)-3-methyl-2-oxo-1,3-benzodiazol-5-yl]hept-6-ynoyl]-6-oxo-octahydropyrrolo[1,2-a][1,5]diazocin-5-yl]carbamoyl]-1H-indole-5-carbonylphosphonic acid] | < 30 µM
Cc1ncsc1-c1ccc(CNC(=O)[C@@H]2C[C@@H](O)CN2C(=O)[C@@H](NC(=O)CCCCCCc2ccc(CO[C@H](C)[C@H](CCC(N)=O)NC(=O)[C@@H]3Cc4cccc5c4N3C(=O)[C@@H](NC(=O)c3cc4cc(C(=O)P(=O)(O)O)ccc4[nH]3)CC5)cc2)C(C)(C)C)cc1 [Compound I-100] | < 30 µM
Cc1ncsc1-c1ccc(CNC(=O)C2C[C@@H](O)CN2C(=O)[C@@H](NC(=O)CCCc2ccc(CO[C@H](C)[C@H](CCC(N)=O)NC(=O)[C@@H]3Cc4cccc5c4N3C(=O)[C@@H](NC(=O)c3cc4cc(C(=O)P(=O)(O)O)ccc4[nH]3)CC5)cc2)C(C)(C)C)cc1 (some centres unmarked) [Compound I-101] | < 30 µM
Cn1c(C(=O)N[C@H]2CN(C(=O)CCCCCC#Cc3cccc4c3CN(C3CCC(=O)NC3=O)C4=O)CC[C@H]3CC[C@@H](C(=O)N[C@@H](CCC(N)=O)C(=O)NC(c4ccccc4)c4ccccc4)N3C2=O)cc2cc(C(=O)P(=O)(O)O)ccc21 (stereo partly drawn) [Compound I-102, diammonium 2-[[(5S,8S,10aR)-8-[[(1S)-3-carbamoyl-1-(diphenylmethylcarbamoyl)propyl]carbamoyl]-3-[8-[2-(2,6-dioxopiperidin-3-yl)-1-oxo-3H-isoindol-4-yl]oct-7-ynoyl]-6-oxo-octahydropyrrolo[1,2-a][1,5]diazocin-5-yl]carbamoyl]-1-methylindole-5-carbonylphosphonate] | < 30 µM
Cn1c(=O)n(C2CCC(=O)NC2=O)c2ccc(C#CCCCCCC(=O)N3CC[C@H]4CC[C@@H](C(=O)N[C@@H](CCC(N)=O)C(=O)NC(c5ccccc5)c5ccccc5)N4C(=O)[C@@H](NC(=O)c4cc5cc(C(=O)P(=O)(O)O)ccc5[nH]4)C3)cc21 (stereo partly drawn) [Compound I-104, 2-[[(5S,8S,10aR)-8-[[(1S)-3-carbamoyl-1-(diphenylmethylcarbamoyl)propyl]carbamoyl]-3-[8-[1-(2,6-dioxopiperidin-3-yl)-3-methyl-2-oxo-1,3-benzodiazol-5-yl]oct-7-ynoyl]-6-oxo-octahydropyrrolo[1,2-a][1,5]diazocin-5-yl]carbamoyl]-1H-indole-5-carbonylphosphonic acid] | < 30 µM
Cn1c(=O)n(C2CCC(=O)NC2=O)c2ccc(C#CCCCC(=O)N3CC[C@H]4CC[C@@H](C(=O)N[C@@H](CCC(N)=O)C(=O)NC(c5ccccc5)c5ccccc5)N4C(=O)[C@@H](NC(=O)c4cc5cc(C(=O)P(=O)(O)O)ccc5[nH]4)C3)cc21 (stereo partly drawn) [Compound I-105, 2-[[(5S,8S,10aR)-8-[[(1S)-3-carbamoyl-1-(diphenylmethylcarbamoyl)propyl]carbamoyl]-3-[6-[1-(2,6-dioxopiperidin-3-yl)-3-methyl-2-oxo-1,3-benzodiazol-5-yl]hex-5-ynoyl]-6-oxo-octahydropyrrolo[1,2-a][1,5]diazocin-5-yl]carbamoyl]-1H-indole-5-carbonylphosphonic acid] | < 30 µM
Cn1c(=O)n(C2CCC(=O)NC2=O)c2ccc(CCCCCC(=O)N3CC[C@H]4CC[C@@H](C(=O)N[C@@H](CCC(N)=O)C(=O)NC(c5ccccc5)c5ccccc5)N4C(=O)[C@@H](NC(=O)c4cc5cc(C(=O)P(=O)(O)O)ccc5[nH]4)C3)cc21 (stereo partly drawn) [Compound I-107, 2-[[(5S,8S,10aR)-8-[[(1S)-3-carbamoyl-1-(diphenylmethylcarbamoyl)propyl]carbamoyl]-3-[6-[1-(2,6-dioxopiperidin-3-yl)-3-methyl-2-oxo-1,3-benzodiazol-5-yl]hexanoyl]-6-oxo-octahydropyrrolo[1,2-a][1,5]diazocin-5-yl]carbamoyl]-1H-indole-5-carbonylphosphonic acid] | < 30 µM
C/C(=C\C(=O)N[C@H]1CCc2cccc3c2N(C1=O)[C@H](C(=O)N[C@@H](CCC(N)=O)[C@@H](C)OCCCc1ccc2c(c1)n(C)c(=O)n2C1CCC(=O)NC1=O)C3)c1ccc(C(F)(F)P(=O)(O)O)cc1 (stereo partly drawn) [Compound I-110, diammonium [4-[(1E)-1-[[(2S,11S)-2-[[(3S,4R)-1-carbamoyl-4-[3-[1-(2,6-dioxopiperidin-3-yl)-3-methyl-2-oxo-1,3-benzodiazol-5-yl]propoxy]pentan-3-yl]carbamoyl]-12-oxo-1-azatricyclo[6.4.1.0^[4,13]]trideca-4(13),5,7-trien-11-yl]carbamoyl]prop-1-en-2-yl]phenyl]difluoromethylphosphonate] | > 30 µM
C/C(=C\C(=O)N[C@H]1CN(C(=O)CCCCCCc2ccc3c(c2)n(C)c(=O)n3C2CCC(=O)NC2=O)CC[C@H]2CC[C@@H](C(=O)N[C@@H](CCC(N)=O)C(=O)NC(c3ccccc3)c3ccccc3)N2C1=O)c1ccc(C(F)(F)P(=O)(O)O)cc1 (some centres unmarked) [Compound I-112] | < 30 µM
C/C(=C\C(=O)N[C@H]1CN(C(=O)CCCCCCCc2ccc3c(c2)n(C)c(=O)n3C2CCC(=O)NC2=O)CC[C@H]2CC[C@@H](C(=O)N[C@@H](CCC(N)=O)C(=O)NC(c3ccccc3)c3ccccc3)N2C1=O)c1ccc(C(F)(F)P(=O)(O)O)cc1 (stereo partly drawn) [Compound I-113, [4-[(1E)-1-[[(5S,8S,10aR)-8-[[(1S)-3-carbamoyl-1-(diphenylmethylcarbamoyl)propyl]carbamoyl]-3-[8-[1-(2,6-dioxopiperidin-3-yl)-3-methyl-2-oxo-1,3-benzodiazol-5-yl]octanoyl]-6-oxo-octahydropyrrolo[1,2-a][1,5]diazocin-5-yl]carbamoyl]prop-1-en-2-yl]phenyl]difluoromethylphosphonic acid] | > 30 µM
C/C(=C\C(=O)N[C@H]1CN(C(=O)CCCCCc2ccc3c(c2)n(C)c(=O)n3C2CCC(=O)NC2=O)CC[C@H]2CC[C@@H](C(=O)N[C@@H](CCC(N)=O)C(=O)NC(c3ccccc3)c3ccccc3)N2C1=O)c1ccc(C(F)(F)P(=O)(O)O)cc1 (stereo partly drawn) [Compound I-114, [4-[(1E)-1-[[(5S,8S,10aR)-8-[[(1S)-3-carbamoyl-1-(diphenylmethylcarbamoyl)propyl]carbamoyl]-3-[6-[1-(2,6-dioxopiperidin-3-yl)-3-methyl-2-oxo-1,3-benzodiazol-5-yl]hexanoyl]-6-oxo-octahydropyrrolo[1,2-a][1,5]diazocin-5-yl]carbamoyl]prop-1-en-2-yl]phenyl]difluoromethylphosphonic acid] | > 30 µM
C/C(=C\C(=O)N[C@H]1CN(C(=O)CCCCCC#Cc2cccc3c2CN(C2CCC(=O)NC2=O)C3=O)CC[C@H]2CC[C@@H](C(=O)N[C@@H](CCC(N)=O)C(=O)NC(c3ccccc3)c3ccccc3)N2C1=O)c1ccc(C(F)(F)P(=O)(O)O)cc1 (stereo partly drawn) [Compound I-115, ((4-((E)-4-(((5S,8S,10aR)-8-(((S)-5-amino-1-(benzhydrylamino)-1,5-dioxopentan-2-yl)carbamoyl)-3-(8-(2-(2,6-dioxopiperidin-3-yl)-1-oxoisoindolin-4-yl)oct-7-ynoyl)-6-oxodecahydropyrrolo[1,2-a][1,5]diazocin-5-yl)amino)-4-oxobut-2-en-2-yl)phenyl)difluoromethyl)phosphonic acid] | < 30 µM
Cc1ncsc1-c1ccc(CNC(=O)[C@@H]2C[C@@H](O)CN2C(=O)[C@@H](NC(=O)CCCCCc2ccc(CO[C@H](C)[C@H](CCC(N)=O)NC(=O)[C@@H]3Cc4cccc5c4N3C(=O)[C@@H](NC(=O)c3cc4cc(C(=O)P(=O)(O)O)ccc4[nH]3)CC5)cc2)C(C)(C)C)cc1 [Compound I-117, (2-(((3S,6S)-6-(((2R,3S)-6-amino-2-((4-(6-(((S)-1-((2S,4R)-4-hydroxy-2-((4-(4-methylthiazol-5-yl)benzyl)carbamoyl)pyrrolidin-1-yl)-3,3-dimethyl-1-oxobutan-2-yl)amino)-6-oxohexyl)benzyl)oxy)-6-oxohexan-3-yl)carbamoyl)-4-oxo-1,2,3,4,6,7-hexahydroazepino[3,2,1-hi]indol-3-yl)carbamoyl)-1H-indole-5-carbonyl)phosphonic acid] | < 30 µM
C[C@@H](OCc1ccc(CCCCCCc2ccc3c(c2)n(C)c(=O)n3C2CCC(=O)NC2=O)cc1)[C@H](CCC(N)=O)NC(=O)[C@@H]1Cc2cccc3c2N1C(=O)[C@@H](NC(=O)c1cc2cc(C(=O)P(=O)(O)O)ccc2[nH]1)CC3 (stereo partly drawn) [Compound I-118, diammonium 2-[[(2S,11S)-2-[[(3S,4R)-1-carbamoyl-4-[(4-[6-[1-(2,6-dioxopiperidin-3-yl)-3-methyl-2-oxo-1,3-benzodiazol-5-yl]hexyl]phenyl)methoxy]pentan-3-yl]carbamoyl]-12-oxo-1-azatricyclo[6.4.1.0^[4,13]]trideca-4(13),5,7-trien-11-yl]carbamoyl]-1H-indole-5-carbonylphosphonate] | > 30 µM
